Data as given in patent publication US6737383B1, “Herbicidal oxadiazolidines” (priority 1999, dated 2004).

Experiments:
blackgrass = test: Test B pre/postemergence blackgrass; type: in vivo, Alopecurus myosuroides
In short: (§1)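 Herbicidal effect was estimated by eye on a ten-point control scale after plants spent twelve to sixteen days in a greenhouse following soil or foliar treatment. Foliar sprays targeted plants at one to four leaves; all doses were formulated in a non-phytotoxic solvent with surfactant.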

surinam grass = test: Test B pre/postemergence surinam grass; type: in vivo, Brachiaria decumbens
In short: as §1

cocklebur = test: Test B pre/postemergence cocklebur; type: in vivo, Xanthium strumarium
In short: as §1

corn = test: Test B pre/postemergence corn; type: in vivo, Zea mays
In short: as §1

crabgrass = test: Test B pre/postemergence crabgrass; type: in vivo, Digitaria sanguinalis
In short: as §1

giant foxtail = test: Test B pre/postemergence giant foxtail; type: in vivo, Setaria faberii
In short: as §1

morningglory = test: Test B pre/postemergence morningglory; type: in vivo, Ipomoea hederacea
In short: as §1

pigweed = test: Test B pre/postemergence pigweed; type: in vivo, Amaranthus retroflexus
In short: as §1

rape = test: Test B pre/postemergence rape; type: in vivo, Brassica napus
In short: as §1

soybean = test: Test B pre/postemergence soybean; type: in vivo, Glycine max
In short: as §1

sugar beet = test: Test B pre/postemergence sugar beet; type: in vivo, Beta vulgaris
In short: as §1

velvetleaf = test: Test B pre/postemergence velvetleaf; type: in vivo, Abutilon theophrasti
In short: as §1

wild oat = test: Test B pre/postemergence wild oat; type: in vivo, Avena fatua
In short: as §1

purple nutsedge = test: Test B pre/postemergence purple nutsedge; type: in vivo, Cyperus rotundus
In short: as §1

smallflower flatsedge = test: Test B flood test smallflower flatsedge; type: in vivo, Cyperus difformis
In short: (§2)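 Plants were grown to the 2-leaf stage before treatment with test chemical, then held in a greenhouse for twelve to sixteen days. Injury was visually rated against untreated controls on a 0–10 scale, where 0 is no effect and 10 is complete control.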

bamyardgrass = test: Test B flood test barnyardgrass; type: in vivo, Echinochloa crus-galli
In short: as §2

[1] = Postemergence, Rate 125 g/ha, scale of 0 to 10 where 0 is no effect and 10 is complete control
[2] = Preemergence, Rate 62 g/ha, scale 0 to 10 (0 no effect, 10 complete control)
[3] = Preemergence, Rate 125 g/ha, 0 is no effect, 10 is complete control
[4] = Preemergence, Rate 250 g/ha, scale 0 to 10, 0 is no effect, 10 is complete control
[5] = Preemergence, Rate 500 g/ha, scale 0 to 10 (0 no effect, 10 complete control)
[6] = Rate 62 g/ha, Postemergence, scale of 0 to 10 where 0 is no effect and 10 is complete control
[7] = Rate 250 g/ha, Postemergence, scale 0 to 10, 0 is no effect, 10 is complete control
[8] = Rate 500 g/ha, Postemergence, scale 0 to 10
[9] = Postemergence (flood test species), Rate 125 g/ha, scale of 0 to 10 where 0 is no effect and 10 is complete control
[10] = Rate 62 g/ha, Postemergence section, flood test species, scale of 0 to 10 where 0 is no effect and 10 is complete control
[11] = Rate 250 g/ha, Postemergence (flood test), scale 0 to 10, 0 is no effect, 10 is complete control
[12] = Rate 250 g/ha, Pre-emergence, flood-test species, scale 0 to 10, 0 is no effect, 10 is complete control
[13] = Rate 500 g/ha, listed under Postemergence (flood test species), scale 0 to 10

SMILES: C=CCn1c(=O)on(C(=O)N(c2ccc(F)cc2)C2CC2)c1=O [Compound 154]
- Blackgrass plant response rating (blackgrass; [1]): 0
- Blackgrass plant response rating (blackgrass; [2]): 0
- Blackgrass plant response rating (0 to 10 scale) (blackgrass; [3]): 0
- Blackgrass plant response rating (blackgrass; [4]): 3
- Blackgrass plant response rating (blackgrass; [5]): 5
- Blackgrass plant response rating (blackgrass; [6]): 0
- Plant response rating, Blackgrass (blackgrass; [7]): 0
- Blackgrass plant response rating (blackgrass; [8]): 0
- B. signalgrass plant response rating (surinam grass; [1]): 0
- B. signalgrass plant response rating (surinam grass; [2]): 0
- B. signalgrass plant response rating (0 to 10 scale) (surinam grass; [3]): 0
- B. signalgrass plant response rating (surinam grass; [4]): 0
- B. signalgrass plant response rating (surinam grass; [5]): 4
- B. signalgrass plant response rating (surinam grass; [6]): 0
- Plant response rating, B. signalgrass (surinam grass; [7]): 0
- B. signalgrass plant response rating (surinam grass; Rate 500 g/ha, Postemergence, scale 0 to 10, 0 no effect, 10 complete control): 2
- Cocklebur plant response rating (cocklebur; [1]): 0
- Cocklebur plant response rating (cocklebur; [2]): 0
- Cocklebur plant response rating (0 to 10 scale) (cocklebur; [3]): 0
- Cocklebur plant response rating (cocklebur; [4]): 0
- Cocklebur plant response rating (cocklebur; [5]): 0
- Cocklebur plant response rating (cocklebur; [6]): 0
- Plant response rating, Cocklebur (cocklebur; [7]): 0
- Cocklebur plant response rating (cocklebur; [8]): 2
- Corn plant response rating (corn; [1]): 0
- Corn plant response rating (corn; [2]): 0
- Corn plant response rating (0 to 10 scale) (corn; [3]): 0
- Corn plant response rating (corn; [4]): 0
- Corn plant response rating (corn; [5]): 0
- Corn plant response rating (corn; [6]): 0
- Plant response rating, Corn (corn; [7]): 0
- Corn plant response rating (corn; [8]): 0
- Crabgrass plant response rating (crabgrass; [1]): 0
- Crabgrass plant response rating (crabgrass; [2]): 0
- Crabgrass plant response rating (0 to 10 scale) (crabgrass; [3]): 0
- Crabgrass plant response rating (crabgrass; [4]): 0
- Crabgrass plant response rating (crabgrass; [5]): 0
- Crabgrass plant response rating (crabgrass; [6]): 0
- Plant response rating, Crabgrass (crabgrass; [7]): 1
- Crabgrass plant response rating (crabgrass; [8]): 5
- Giant foxtail plant response rating (giant foxtail; [1]): 0
- Giant foxtail plant response rating (giant foxtail; [2]): 0
- Giant foxtail plant response rating (0 to 10 scale) (giant foxtail; [3]): 0
- Giant foxtail plant response rating (giant foxtail; [5]): 8
- Giant foxtail plant response rating (giant foxtail; [6]): 0
- Plant response rating, Giant foxtail (giant foxtail; [7]): 1
- Giant foxtail plant response rating (giant foxtail; [8]): 3
- Morningglory plant response rating (morningglory; [1]): 0
- Morningglory plant response rating (morningglory; [2]): 0
- Morningglory plant response rating (0 to 10 scale) (morningglory; [3]): 0
- Morningglory plant response rating (morningglory; [4]): 0
- Morningglory plant response rating (morningglory; [5]): 0
- Morningglory plant response rating (morningglory; [6]): 0
- Plant response rating, Morningglory (morningglory; [7]): 1
- Morningglory plant response rating (morningglory; [8]): 2
- Redroot pigweed plant response rating (pigweed; [1]): 0
- Redroot pigweed plant response rating (pigweed; [2]): 6
- Redroot pigweed plant response rating (0 to 10 scale) (pigweed; [3]): 7
- Redroot pigweed plant response rating (pigweed; [4]): 8
- Redroot pigweed plant response rating (pigweed; [5]): 9
- Redroot pigweed plant response rating (pigweed; [6]): 0
- Plant response rating, Redroot pigweed (pigweed; [7]): 2
- Redroot pigweed plant response rating (pigweed; [8]): 6
- Rape plant response rating (rape; [1]): 0
- Rape plant response rating (rape; [2]): 0
- Rape plant response rating (0 to 10 scale) (rape; [3]): 0
- Rape plant response rating (rape; [4]): 0
- Rape plant response rating (rape; [5]): 0
- Rape plant response rating (rape; [6]): 0
- Plant response rating, Rape (rape; [7]): 0
- Rape plant response rating (rape; [8]): 0
- Soybean plant response rating (soybean; [1]): 2
- Soybean plant response rating (soybean; [2]): 0
- Soybean plant response rating (0 to 10 scale) (soybean; [3]): 0
- Soybean plant response rating (soybean; [4]): 0
- Soybean plant response rating (soybean; [5]): 0
- Soybean plant response rating (soybean; [6]): 2
- Plant response rating, Soybean (soybean; [7]): 2
- Soybean plant response rating (soybean; [8]): 3
- Sugarbeets plant response rating (sugar beet; [1]): 0
- Sugarbeets plant response rating (sugar beet; [2]): 0
- Sugarbeets plant response rating (0 to 10 scale) (sugar beet; [3]): 0
- Sugarbeets plant response rating (sugar beet; [4]): 4
- Sugarbeets plant response rating (sugar beet; [5]): 6
- Sugarbeets plant response rating (sugar beet; [6]): 0
- Plant response rating, Sugarbeets (sugar beet; [7]): 0
- Sugarbeets plant response rating (sugar beet; [8]): 0
- Velvetleaf plant response rating (velvetleaf; [2]): 0
- Velvetleaf plant response rating (0 to 10 scale) (velvetleaf; [3]): 0
- Velvetleaf plant response rating (velvetleaf; [4]): 0
- Velvetleaf plant response rating (velvetleaf; [5]): 0
- Velvetleaf plant response rating (velvetleaf; [6]): 0
- Plant response rating, Velvetleaf (velvetleaf; [7]): 0
- Velvetleaf plant response rating (velvetleaf; [8]): 0
- Wild oats plant response rating (wild oat; [2]): 0
- Wild oats plant response rating (0 to 10 scale) (wild oat; [3]): 0
- Wild oats plant response rating (wild oat; [4]): 4
- Wild oats plant response rating (wild oat; [5]): 5
- Wild oats plant response rating (wild oat; [6]): 0
- Plant response rating, Wild oats (wild oat; [7]): 0
- Wild oats plant response rating (wild oat; [8]): 1
- Nutsedge plant response rating (purple nutsedge; [1]): 0
- Nutsedge plant response rating (purple nutsedge; [2]): 0
- Nutsedge plant response rating (0 to 10 scale) (purple nutsedge; [3]): 0
- Nutsedge plant response rating (purple nutsedge; [4]): 0
- Nutsedge plant response rating (purple nutsedge; [5]): 0
- Nutsedge plant response rating (purple nutsedge; [6]): 0
- Plant response rating, Nutsedge (purple nutsedge; [7]): 0
- Nutsedge plant response rating (purple nutsedge; [8]): 0
- S. Flatsedge plant response rating (smallflower flatsedge; [9]): 0
- S. Flatsedge plant response rating (smallflower flatsedge; Pre-emergence, Rate 1000 g/ha, scale 0 to 10 (0 no effect, 10 complete control)): 0
- S. Flatsedge plant response rating (smallflower flatsedge; [10]): 0
- Plant response rating, S. Flatsedge (smallflower flatsedge; [11]): 0
- S. Flatsedge plant response rating (smallflower flatsedge; [12]): 0
- S. Flatsedge plant response rating (smallflower flatsedge; [13]): 0
- S. Flatsedge plant response rating (smallflower flatsedge; Rate 500 g/ha, Pre-emergence, flood test species, scale 0 to 10 (0 no effect, 10 complete control)): 0
- S. Flatsedge plant response rating (smallflower flatsedge; Rate 2000 g/ha, Pre-emergence (as headed), scale 0 to 10): 0
- Barnyardgrass plant response rating (bamyardgrass; [9]): 0
- Barnyardgrass plant response rating (bamyardgrass; [10]): 0
- Plant response rating, Barnyardgrass (bamyardgrass; [11]): 0
- Barnyardgrass plant response rating (bamyardgrass; [12]): 0
- Plant response rating, Barnyardgrass (bamyardgrass; Rate 500 g/ha, headed Pre-emergence (flood test species), scale 0 to 10 (0 no effect, 10 complete control)): 0
- Barnyardgrass plant response rating (bamyardgrass; [13]): 0
- Barnyardgrass plant response rating (bamyardgrass; Rate 1000 g/ha, Pre-emergence (as headed), scale 0 to 10): 0
- Barnyardgrass plant response rating (bamyardgrass; Rate 2000 g/ha, Pre-emergence (as headed), scale 0 to 10, 0 no effect, 10 complete control): 0
